Experimental data from patent US20260014285A1, “POLYPEPTIDE COMPOUND, AND COMPLEX AND USE THEREOF” (HANGZHOU HEALTHYTIDE BIOTECHNOLOGY CO., LTD., priority 2022, published 2026).
Non-standard residues stand in square brackets, D forms with d. Residues, ends and D or L forms follow the SMILES beside them. ξ: configuration not given here. *: point of attachment. DOTA = O=C(O)CN1CCN(CC(=O)O)CCN(CC(=O)*)CCN(CC(=O)O)CC1; ξIle = CC[C@H](C)C(N)C(=O)O; AEA = NCCOCC(=O)O

Experiments:
integrin α5β1 = integrin α5β1 (Homo sapiens, UniProt P05556+P08648); assay: Target affinity test by surface plasmon resonance (SPR), integrin α5β1; assay type: binding
Method: (§1) Surface plasmon resonance (SPR) technique was used to test the affinity of the compound in the examples to the target protein integrin α5β1. Specifically, the following operations were performed.
(§2) The affinity constants (KD) of the compounds to the target proteins integrin α5β1, αvβ3, and αvβ5 were calculated according to the formula of KD=Kd/Ka (the lower the value of KD, the higher the affinity of the compounds of the examples to the target protein integrin α5β1).

integrin αvβ3 = integrin αvβ3 (Homo sapiens, UniProt P05106+P06756); assay: Target affinity test by surface plasmon resonance (SPR), integrin αvβ3; assay type: binding
Method: as §1, §2

[1] = SPR (Biacore T200), CM5 chip, 25° C., KD=Kd/Ka

Chain of integrin αvβ3 (P06756 31-992 limits assumed): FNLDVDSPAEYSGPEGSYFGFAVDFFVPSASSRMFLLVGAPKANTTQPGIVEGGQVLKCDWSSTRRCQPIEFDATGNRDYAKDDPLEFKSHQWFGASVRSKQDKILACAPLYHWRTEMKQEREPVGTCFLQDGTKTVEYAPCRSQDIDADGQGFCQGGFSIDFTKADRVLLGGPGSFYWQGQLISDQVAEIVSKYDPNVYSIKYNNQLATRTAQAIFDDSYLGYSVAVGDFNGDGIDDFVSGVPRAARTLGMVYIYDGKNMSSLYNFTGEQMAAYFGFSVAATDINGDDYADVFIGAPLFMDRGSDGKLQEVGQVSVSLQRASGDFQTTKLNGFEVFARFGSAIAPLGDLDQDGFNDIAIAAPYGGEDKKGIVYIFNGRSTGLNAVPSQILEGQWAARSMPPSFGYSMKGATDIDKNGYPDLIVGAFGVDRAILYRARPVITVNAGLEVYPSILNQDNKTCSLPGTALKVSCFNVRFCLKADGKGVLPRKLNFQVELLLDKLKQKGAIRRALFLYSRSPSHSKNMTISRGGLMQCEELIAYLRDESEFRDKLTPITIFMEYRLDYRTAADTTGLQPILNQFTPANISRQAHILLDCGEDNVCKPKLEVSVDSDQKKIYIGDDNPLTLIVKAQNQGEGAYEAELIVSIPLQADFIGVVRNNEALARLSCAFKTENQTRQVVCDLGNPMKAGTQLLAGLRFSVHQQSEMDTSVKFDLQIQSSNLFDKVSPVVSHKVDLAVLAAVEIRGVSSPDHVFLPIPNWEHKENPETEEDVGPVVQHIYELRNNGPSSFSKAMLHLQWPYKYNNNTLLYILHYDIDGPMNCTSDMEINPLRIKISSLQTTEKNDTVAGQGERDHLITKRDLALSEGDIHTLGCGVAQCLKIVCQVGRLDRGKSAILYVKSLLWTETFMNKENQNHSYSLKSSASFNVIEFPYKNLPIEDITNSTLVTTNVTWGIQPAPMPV
Chain of integrin αvβ3 (P05106 27-718 limits assumed): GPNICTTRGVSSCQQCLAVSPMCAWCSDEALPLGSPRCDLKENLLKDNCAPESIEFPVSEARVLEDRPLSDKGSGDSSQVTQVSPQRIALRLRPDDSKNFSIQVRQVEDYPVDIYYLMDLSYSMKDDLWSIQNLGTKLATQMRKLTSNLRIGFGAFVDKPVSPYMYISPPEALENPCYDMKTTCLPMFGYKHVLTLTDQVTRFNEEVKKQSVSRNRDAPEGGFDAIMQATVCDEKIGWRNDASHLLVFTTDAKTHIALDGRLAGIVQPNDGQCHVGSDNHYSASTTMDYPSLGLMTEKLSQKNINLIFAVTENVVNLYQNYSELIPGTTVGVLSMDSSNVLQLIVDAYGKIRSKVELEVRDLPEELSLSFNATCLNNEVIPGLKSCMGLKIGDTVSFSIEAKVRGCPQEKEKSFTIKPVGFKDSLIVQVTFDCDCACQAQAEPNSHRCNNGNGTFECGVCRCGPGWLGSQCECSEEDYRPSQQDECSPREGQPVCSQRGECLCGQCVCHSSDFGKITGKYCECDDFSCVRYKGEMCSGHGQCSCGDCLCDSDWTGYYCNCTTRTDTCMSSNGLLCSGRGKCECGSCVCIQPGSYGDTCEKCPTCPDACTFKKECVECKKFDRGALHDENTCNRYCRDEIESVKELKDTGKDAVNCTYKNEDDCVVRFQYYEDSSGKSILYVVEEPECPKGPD
Chain of integrin α5β1 (P08648 42-995 limits assumed): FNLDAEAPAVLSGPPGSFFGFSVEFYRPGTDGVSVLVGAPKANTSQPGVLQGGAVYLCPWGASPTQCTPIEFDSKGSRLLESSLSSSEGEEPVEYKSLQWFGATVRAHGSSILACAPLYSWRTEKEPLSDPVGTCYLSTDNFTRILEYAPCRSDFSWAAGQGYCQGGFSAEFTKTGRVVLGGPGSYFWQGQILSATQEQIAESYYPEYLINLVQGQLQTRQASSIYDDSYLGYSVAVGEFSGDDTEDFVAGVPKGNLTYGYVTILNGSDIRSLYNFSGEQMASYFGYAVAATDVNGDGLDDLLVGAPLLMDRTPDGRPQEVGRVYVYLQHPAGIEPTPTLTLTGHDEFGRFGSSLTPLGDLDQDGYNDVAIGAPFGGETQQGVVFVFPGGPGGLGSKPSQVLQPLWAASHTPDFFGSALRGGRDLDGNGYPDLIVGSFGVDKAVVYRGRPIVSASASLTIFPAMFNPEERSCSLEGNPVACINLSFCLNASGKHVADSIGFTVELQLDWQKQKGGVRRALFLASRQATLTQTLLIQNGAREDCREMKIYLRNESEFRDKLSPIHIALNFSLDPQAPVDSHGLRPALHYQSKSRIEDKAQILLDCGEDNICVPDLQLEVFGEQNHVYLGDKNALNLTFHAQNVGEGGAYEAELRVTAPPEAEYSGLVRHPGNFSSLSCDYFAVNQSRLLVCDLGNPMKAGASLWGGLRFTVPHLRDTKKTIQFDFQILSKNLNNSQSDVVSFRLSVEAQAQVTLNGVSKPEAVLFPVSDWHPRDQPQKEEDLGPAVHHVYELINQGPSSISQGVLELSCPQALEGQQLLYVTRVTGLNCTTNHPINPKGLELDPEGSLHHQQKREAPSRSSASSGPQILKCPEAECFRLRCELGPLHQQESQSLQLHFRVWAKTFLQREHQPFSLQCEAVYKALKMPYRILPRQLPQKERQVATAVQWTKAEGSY
Chain of integrin α5β1 (P05556 21-728 limits assumed): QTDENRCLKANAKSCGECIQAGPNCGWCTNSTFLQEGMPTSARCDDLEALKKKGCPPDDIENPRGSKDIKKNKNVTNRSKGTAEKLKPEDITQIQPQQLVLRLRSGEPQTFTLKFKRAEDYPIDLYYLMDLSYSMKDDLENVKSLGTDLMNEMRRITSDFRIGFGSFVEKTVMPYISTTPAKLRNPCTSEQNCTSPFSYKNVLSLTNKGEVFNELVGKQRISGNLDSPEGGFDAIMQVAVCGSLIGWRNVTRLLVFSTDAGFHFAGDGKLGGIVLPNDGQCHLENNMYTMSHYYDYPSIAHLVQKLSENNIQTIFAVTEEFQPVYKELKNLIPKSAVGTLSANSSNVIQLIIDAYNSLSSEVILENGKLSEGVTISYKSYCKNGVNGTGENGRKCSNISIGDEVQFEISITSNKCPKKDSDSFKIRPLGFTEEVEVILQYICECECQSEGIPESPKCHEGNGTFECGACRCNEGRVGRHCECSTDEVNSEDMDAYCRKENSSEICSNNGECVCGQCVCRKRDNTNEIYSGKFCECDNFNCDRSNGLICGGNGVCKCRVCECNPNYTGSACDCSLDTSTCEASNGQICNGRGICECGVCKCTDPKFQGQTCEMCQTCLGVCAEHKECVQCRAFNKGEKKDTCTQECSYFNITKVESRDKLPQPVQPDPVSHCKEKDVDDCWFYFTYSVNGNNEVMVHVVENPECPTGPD

CC[C@H](C)C(NC(=O)[C@@H](NC(=O)[C@H](CC(=O)O)NC(=O)[C@H](CC(N)=O)NC(=O)[C@H](CC(=O)O)NC(=O)CNC(=O)[C@H](CCCNC(=N)N)NC(=O)COCCNC(=O)CN1CCN(CC(=O)O)CCN(CC(=O)O)CCN(CC(=O)O)CC1)C(C)C)C(=O)N[C@@H](CC(N)=O)C(=O)O (stereo partly shown) [TM15] ({DOTA-AEA}-RGDNDV[ξIle]N-OH)
affinity constant (KD) to integrin α5β1, in words (integrin α5β1; SPR): better than nM level
Kd (integrin α5β1; [1]): 0.992 nM
affinity constant (KD) to integrin αvβ3, in words (integrin αvβ3; SPR): nM level
Kd (integrin αvβ3; [1]): 1.69 nM
